Measurements taken from patent US20090304600A1 (priority 2008, published 2009).
Where two headings read alike, the source gives them in different places.

How the values were obtained:
[1] = cited from earlier work
[2] = ESRD patient, cited from earlier work
[3] = cited from earlier work; remark: listed apart in the source
[4] = patients with normal renal function; cited from earlier work

SMILES | elimination route ([1]; anuric dogs) | half-life ([1]; anuric dogs) [h] | metabolic clearance rate ([1]; dogs, during renal failure) | volume of distribution ([1]; dogs, during renal failure) | distribution ([1]; normal and anuric mongrel dogs) | cleared renally ([1]; normal dogs) [%] | half-life ([1]; normal dogs) [h] | solubility in the dialysis solution (hemodialysis dialysate) | solubility in peritoneal dialysis solutions (peritoneal dialysis solutions) | serum sodium thiosulfate concentration ([2]; 15 min after infusion) [µg/mL] | serum sodium thiosulfate concentration ([2]; after a 4-h hemodialysis session) [µg/mL] | serum sodium thiosulfate concentration ([2]; before hemodialysis (52 h after administration)) [µg/mL] | calculated half life [2] [h] | solubility in water [3] | serum half-life [4] [h] | water solubility relative to calcium phosphate [3]
O=S([O-])([O-])=S.[Na+].[Na+] [sodium thiosulfate] | primarily through the biliary system | 3.98 | decreased drastically | doubled | distributes rapidly throughout the extracellular space | > 98 | 0.78 | soluble | soluble | 110 | 0 | 1.2 | 7.97 | soluble in water | 0.25 | 
O=S([O-])([O-])=S.[Ca+2] [Calcium thiosulfate] |  |  |  |  |  |  |  |  |  |  |  |  |  |  |  | many folds more water soluble than calcium phosphate
